In patent US12692262B2, “Substituted ureas as orexin receptor agonists” (Merck Sharp & Dohme LLC, priority 2020, dated 2026):

Molecular target: T1, human OX2R (Homo sapiens, UniProt O43614)
T1 construct: expressed in transfected cells; host or cells: CHO (Chinese hamster ovary) cells grown under G418 selection
T1 sequence (O43614 1-444): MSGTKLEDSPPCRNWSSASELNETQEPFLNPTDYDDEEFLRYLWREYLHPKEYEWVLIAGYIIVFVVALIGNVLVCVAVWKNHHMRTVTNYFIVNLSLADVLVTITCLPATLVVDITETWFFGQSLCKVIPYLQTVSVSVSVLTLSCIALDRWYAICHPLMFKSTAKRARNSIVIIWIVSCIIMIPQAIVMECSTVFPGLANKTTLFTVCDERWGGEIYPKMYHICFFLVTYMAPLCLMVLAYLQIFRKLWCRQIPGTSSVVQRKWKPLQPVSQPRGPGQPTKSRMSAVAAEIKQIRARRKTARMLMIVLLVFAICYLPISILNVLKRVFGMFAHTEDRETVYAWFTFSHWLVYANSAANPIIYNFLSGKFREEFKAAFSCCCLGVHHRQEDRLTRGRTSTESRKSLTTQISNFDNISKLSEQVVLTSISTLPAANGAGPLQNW
Assay: IPOne (IP-1 accumulation) assay in CHO cells expressing human OX2R
Type: cell-based
Details: for EC50: CHO cells expressing human OX2R, IP-One assay, 2 h incubation, four parameter logistic fit, read-out: OX2R Potency, EC50; for % of maximum agonist effect (relative to Orexin A): percent effect vs mean max effect of a reference compound at 1 uM (100% activity vs Orexin A), human OX2R
Method in brief: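 Agonist EC50 values come from the inflection point of four-parameter logistic curves. Read-out is IP-1 accumulation detected with lysis buffer plus D2 and AB-cryptate reagents (HTRF), in CHO cells engineered to express human OX2R.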

EC50 [nM] | % of maximum agonist effect (relative to Orexin A) [%] | Structure (SMILES)
34.6 | 99.0 | CCN(C(=O)NC1CC(CC(F)(F)F)C1)[C@@H](c1cc(-c2cn3ccnc3c(OC)n2)c(OC)cn1)C(F)(F)F (stereo partly drawn) [Example 2-30, (S)-1-ethyl-1-(2,2,2-trifluoro-1-(5-methoxy-4-(8-methoxyimidazo[1,2-a]pyrazin-6-yl)pyridin-2-yl)ethyl)-3-(3-(2,2,2-trifluoroethyl)cyclobutyl)urea]
35.1 | 99.0 | CCN(C(=O)N[C@]1(C)C[C@H]1C(F)(F)F)[C@@H](c1cc(-c2cn3ccnc3c(OC)n2)c(OC)cn1)C(F)(F)F [Example 2-31, 1-ethyl-3-((1R,2R)-1-methyl-2-(trifluoromethyl)cyclopropyl)-1-((S)-2,2,2-trifluoro-1-(5-methoxy-4-(8-methoxyimidazo[1,2-a]pyrazin-6-yl)pyridin-2-yl)ethyl)urea]
40.8 | 101.0 | CCN(C(=O)NC1CC1)[C@@H](c1cc(-c2cn3ccnc3c(OC)n2)c(OC)cn1)C(F)(F)F [Example 2-32, (S)-3-cyclopropyl-1-ethyl-1-(2,2,2-trifluoro-1-(5-methoxy-4-(8-methoxyimidazo[1,2-a]pyrazin-6-yl)pyridin-2-yl)ethyl)urea]
0.8 | 101.6 | CCN(C(=O)NC(C1CC(F)(F)CCO1)C(F)(F)F)[C@H](C)c1cccc(-c2cn3ccnc3c(OC)n2)c1 (stereo partly drawn) [Example 2-33, 3-(1-(4,4-difluorotetrahydro-2H-pyran-2-yl)-2,2,2-trifluoroethyl)-1-ethyl-1-((R)-1-(3-(8-methoxyimidazo[1,2-a]pyrazin-6-yl)phenyl)ethyl)urea]
2.7 | 101.1 | CCN(C(=O)NC(CC(C)=O)C(F)(F)F)[C@@H](c1cc(-c2cn3ccnc3c(OC)n2)c(OC)cn1)C(F)(F)F (stereo partly drawn) [Example 2-34, 1-ethyl-1-((S)-2,2,2-trifluoro-1-(5-methoxy-4-(8-methoxyimidazo[1,2-a]pyrazin-6-yl)pyridin-2-yl)ethyl)-3-(1,1,1-trifluoro-4-oxopentan-2-yl)urea]
0.9 | 102.3 | CCN(C(=O)N[C@@H](CCC#N)C(F)(F)F)[C@@H](c1cc(-c2cn3ccnc3c(OC)n2)c(OC)cn1)C(F)(F)F [Example 2-35, 3-((S)-4-cyano-1,1,1-trifluorobutan-2-yl)-1-ethyl-1-((S)-2,2,2-trifluoro-1-(5-methoxy-4-(8-methoxyimidazo[1,2-a]pyrazin-6-yl)pyridin-2-yl)ethyl)urea]
0.7 | 100.5 | CCN(C(=O)N[C@@H](CCS(C)(=O)=O)C(F)(F)F)[C@@H](c1cc(-c2cn3ccnc3c(OC)n2)c(OC)cn1)C(F)(F)F [Example 2-36, 1-ethyl-1-((S)-2,2,2-trifluoro-1-(5-methoxy-4-(8-methoxyimidazo[1,2-a]pyrazin-6-yl)pyridin-2-yl)ethyl)-3-((S)-1,1,1-trifluoro-4-(methylsulfonyl)butan-2-yl)urea]
20 | 100.8 | CCCC(C#N)NC(=O)N(CC)[C@H](C)c1cccc(-c2cn3ccnc3c(OC)n2)c1 (stereo partly drawn) [Example 2-37, 3-(1-cyanobutyl)-1-ethyl-1-((R)-1-(3-(8-methoxyimidazo[1,2-a]pyrazin-6-yl)phenyl)ethyl)urea]
4.2 | 99.7 | CCN(C(=O)NC1CC(C(F)(F)F)C1)[C@@H](c1cc(-c2cn3ccnc3c(OC)n2)c(OC)cn1)C(F)(F)F (stereo partly drawn) [Example 2-38, (S)-1-ethyl-1-(2,2,2-trifluoro-1-(5-methoxy-4-(8-methoxyimidazo[1,2-a]pyrazin-6-yl)pyridin-2-yl)ethyl)-3-(3-(trifluoromethyl)cyclobutyl)urea]
5.8 | 99.3 | CCN(C(=O)N[C@H]1C[C@@]1(C)C(F)(F)F)[C@@H](c1cc(-c2cn3ccnc3c(OC)n2)c(OC)cn1)C(F)(F)F [Example 2-39, 1-ethyl-3-((1S,2R)-2-methyl-2-(trifluoromethyl)cyclopropyl)-1-((S)-2,2,2-trifluoro-1-(5-methoxy-4-(8-methoxyimidazo[1,2-a]pyrazin-6-yl)pyridin-2-yl)ethyl)urea]
15.8 | 99.3 | CCN(C(=O)NC(C)C(C)(F)F)[C@@H](c1cc(-c2cn3ccnc3c(OC)n2)c(OC)cn1)C(F)(F)F (stereo partly drawn) [Example 2-40, 3-(3,3-difluorobutan-2-yl)-1-ethyl-1-((S)-2,2,2-trifluoro-1-(5-methoxy-4-(8-methoxyimidazo[1,2-a]pyrazin-6-yl)pyridin-2-yl)ethyl)urea]
16.3 | 101.2 | CCN(C(=O)NC(C)C(F)F)[C@@H](c1cc(-c2cn3ccnc3c(OC)n2)c(OC)cn1)C(F)(F)F (stereo partly drawn) [Example 2-41, 3-(1,1-difluoropropan-2-yl)-1-ethyl-1-((S)-2,2,2-trifluoro-1-(5-methoxy-4-(8-methoxyimidazo[1,2-a]pyrazin-6-yl)pyridin-2-yl)ethyl)urea]
27.8 | 101.7 | CCN(C(=O)NC1CC1(F)F)[C@@H](c1cc(-c2cn3ccnc3c(OC)n2)c(OC)cn1)C(F)(F)F (stereo partly drawn) [Example 2-42, 3-(2,2-difluorocyclopropyl)-1-ethyl-1-((S)-2,2,2-trifluoro-1-(5-methoxy-4-(8-methoxyimidazo[1,2-a]pyrazin-6-yl)pyridin-2-yl)ethyl)urea]
1.1 | 99.8 | CCN(C(=O)NC(CN1CCOC1=O)C(F)(F)F)[C@@H](c1cc(-c2cn3ccnc3c(OC)n2)c(OC)cn1)C(F)(F)F (stereo partly drawn) [Example 2-43, 1-ethyl-1-((S)-2,2,2-trifluoro-1-(5-methoxy-4-(8-methoxyimidazo[1,2-a]pyrazin-6-yl)pyridin-2-yl)ethyl)-3-(1,1,1-trifluoro-3-(2-oxooxazolidin-3-yl)propan-2-yl)urea]
4.8 | 100.6 | CCN(C(=O)N[C@@H](CC(OC)C(F)(F)F)C(F)(F)F)[C@@H](c1cc(-c2cn3cc(C)nc3c(OC)n2)c(OC)cn1)C(F)(F)F (stereo partly drawn) [Example 2-44, 1-ethyl-3-((2S)-1,1,1,5,5,5-hexafluoro-4-methoxypentan-2-yl)-1-((S)-2,2,2-trifluoro-1-(5-methoxy-4-(8-methoxy-2-methylimidazo[1,2-a]pyrazin-6-yl)pyridin-2-yl)ethyl)urea]
1.9 | 99.8 | CCN(C(=O)NC(CCC(F)(F)F)C1CCO1)[C@@H](c1cc(-c2cn3ccnc3c(OC)n2)c(OC)cn1)C(F)(F)F (stereo partly drawn) [Example 2-45, 1-ethyl-1-((S)-2,2,2-trifluoro-1-(5-methoxy-4-(8-methoxyimidazo[1,2-a]pyrazin-6-yl)pyridin-2-yl)ethyl)-3-(4,4,4-trifluoro-1-(oxetan-2-yl)butyl)urea]
11.7 | 100.9 | CCN(C(=O)NC(CC1CCCO1)C(F)(F)F)[C@@H](c1cc(-c2cn3cc(C)nc3c(OC)n2)c(OC)cn1)C(F)(F)F (stereo partly drawn) [Example 2-46, 1-ethyl-1-((S)-2,2,2-trifluoro-1-(5-methoxy-4-(8-methoxy-2-methylimidazo[1,2-a]pyrazin-6-yl)pyridin-2-yl)ethyl)-3-(1,1,1-trifluoro-3-(tetrahydrofuran-2-yl)propan-2-yl)urea]
16.7 | 100.7 | CCN(C(=O)NC(C1CCCOC1)C(F)(F)F)[C@@H](c1cc(-c2cn3cc(C)nc3c(OC)n2)c(OC)cn1)C(F)(F)F (stereo partly drawn) [Example 2-47, 1-ethyl-1-((S)-2,2,2-trifluoro-1-(5-methoxy-4-(8-methoxy-2-methylimidazo[1,2-a]pyrazin-6-yl)pyridin-2-yl)ethyl)-3-(2,2,2-trifluoro-1-(tetrahydro-2H-pyran-3-yl)ethyl)urea]
17.6 | 101.0 | CCN(C(=O)NC(C1CCOCC1)C(F)(F)F)[C@@H](c1cc(-c2cn3cc(C)nc3c(OC)n2)c(OC)cn1)C(F)(F)F (stereo partly drawn) [Example 2-48, 1-ethyl-1-((S)-2,2,2-trifluoro-1-(5-methoxy-4-(8-methoxy-2-methylimidazo[1,2-a]pyrazin-6-yl)pyridin-2-yl)ethyl)-3-(2,2,2-trifluoro-1-(tetrahydro-2H-pyran-4-yl)ethyl)urea]
99.4 | 100.1 | CCN(C(=O)NC(CCC(F)(F)F)COC)[C@@H](c1cc(-c2cn3cc(C)nc3c(OC)n2)c(OC)cn1)C(F)(F)F (stereo partly drawn) [Example 2-49, 1-ethyl-1-((S)-2,2,2-trifluoro-1-(5-methoxy-4-(8-methoxy-2-methylimidazo[1,2-a]pyrazin-6-yl)pyridin-2-yl)ethyl)-3-(5,5,5-trifluoro-1-methoxypentan-2-yl)urea]
1.4 | 100.5 | CCN(C(=O)N[C@@H](CCC(F)(F)F)C(F)(F)F)C(c1cnc(OC)c(-c2cn3ccnc3c(OC)n2)c1)C(F)(F)F (stereo partly drawn) [Example 2-50, 1-ethyl-3-((S)-1,1,1,5,5,5-hexafluoropentan-2-yl)-1-(2,2,2-trifluoro-1-(6-methoxy-5-(8-methoxyimidazo[1,2-a]pyrazin-6-yl)pyridin-3-yl)ethyl)urea]
